Laboratory results from US7829552B2, “Phosphorus-containing thyromimetics” (Metabasis Therapeutics, Inc., priority 2003, dated 2010).

Tests used:
cholesterol-fed rat = assay: Subacute studies in cholesterol-fed rats, IP once-a-day for seven days: serum cholesterol, heart weight, heart GPDH
Procedure: The cholesterol-fed rat is an animal model of hypercholesterolemia generated by feeding the animals a diet with high cholesterol content.
Serum cholesterol values were assessed and the animals randomized into groups for treatment.

[1] = Liver distribution following oral administration (liver levels of Compound 7 by LC-MS); format: in vivo, rat; details: levels of Compound 7 in liver, 10 mg/kg@1.5 h, normal rats
Procedure: Liver levels of Compound 7 were assessed in normal rats following oral administration of the HepDirect™ or other prodrugs. The levels were used to estimate potential efficacy. Liver levels were assessed by LC-MS using the 363.3/63.0 peak area to estimate levels of Compound 7 generated by orally administered prodrugs.

ZDF rats [2] = assay: Liver triglycerides and liver histology in ZDF rats, oral 28 days; format: in vivo, rat
Procedure: In other experiments, Compound 7 was orally administered to ZDF rats for 28 days. Liver triglycerides were analyzed as described above. Total liver triglycerides were reduced in the treated animals 42% in the 2.5 mg/kg/d group. […] The hepatic steatosis is a well known and described phenomenon for the ZDF rat, and therefore not attributable to vehicle treatment.

[3] = tested on: Hypercholesterolemic rats; assay: Cholesterol lowering in hypercholesterolemic (cholesterol-fed) rats; format: in vivo, rat
Procedure: Plasma cholesterol values were assessed prior to and following treatment and the effects of compound were expressed as a percentage change from the pre-dose cholesterol levels. […] Compounds were routinely tested for oral efficacy at a dose of 0.5 mg/kg/d. Hypercholesterolemic rats were treated with vehicle, Compound 13-1-cis (a HepDirect version of Compound 7), Compound 19-1 (a diethyl ester of Compound 19-2), Compound 13-9 (a HepDirect version of Compound 19-2), Compound 12-5 (a bisPom version of compound 19-2), or Compound 15-5 (a bisamidate version of Compound 19-2) at 0.5 mg/kg/d orally. Compound 13-1-cis has been extensively characterized and was used as the positive control for the assay.

ZDF rats [4] = assay: Circulating TSH in ZDF rats treated 28 days; format: in vivo, rat; details: 50 mg/kg/d for 28 days
Excerpt: Another concern with synthetic thyromimetics is the suppression of the endogenous thyroid axis. Thyroid homeostasis is maintained by the action of thyroid releasing hormone (TRH) and thyroid stimulating hormone (TSH). […] Although this particular side effect has been noted, it has typically been treated with less concern than the cardiac safety issues. […] Therefore previous investigators have measured TSH levels when testing synthetic thyromimetics and have used a 30% decrease of TSH as the denominator in their therapeutic index calculations. […] Therefore, both compounds suppress TSH as doses lower than that required to decrease circulating cholesterol. […] However, 0.2 mg/kg/d of Compound 18 in 28 day treated ZDF rats, decreased TSH levels greater than 90%.

isolated rat hepatocytes = assay: Activation of prodrug in isolated rat hepatocytes; format: in vitro ADME; details: active species in hepatocytes, 100 μM
Procedure: Method: Hepatocytes are prepared from fed Sprague-Dawley rats (250-300 g) according to the procedure of Berry and Friend (Berry, M. N., Friend, D. S. J. Cell Biol. 43, 506-520 (1969)) as modified by Groen (Groen, A. K. et al., Eur J. Biochem 122, 87-93 (1982)). Hepatocytes (60 mg wet weight/mL) are incubated in 1 mL Krebs-bicarbonate buffer containing 10 mM glucose, and 1 mg/mL BSA. Incubations are carried out in a 95% oxygen, 5% carbon dioxide atmosphere in closed, 50-mL Falcon tubes submerged in a rapidly shaking water bath (37° C.). Prodrugs are dissolved in DMSO to yield 10 mM stock solutions, and then diluted into the cell suspension to yield a final concentration of 100 μM. At appropriate time points over the course of 1 h, aliquots of the cell suspension are removed and spun through a silicon/mineral oil layer into 10% perchloric acid. The cell extracts in the acid layers are neutralized, and the intracellular prodrug metabolite content analyzed by reverse phase HPLC or LC-MS/MS (Example F). The AUC of the active species in the hepatocytes is calculated from the concentration-time profile of parent compound.

Sprague Dawley (SD) rat = assay: Cardiovascular activity of T3 mimetics in the Sprague Dawley rat, oral 7 days; format: in vivo; details: SD rats, p.o. 7 days, Compound cis-13-1 1-50 mg/kg/day
Excerpt: Method: […] The control group (n=6) was given vehicle only. […] On the 7th day after the start of dosing, animals were anesthetized with Isoflurane and the left ventricle cannulated with a high fidelity catheter tip transducer via the right carotid artery. Left ventricular pressure, its first derivative (LVdP/dt), lead I ECG, and heart rate (HR) triggered off the ECG waveform, were digitally recorded. LV dP/dt is a well accepted measure of ionotropic state. Systolic and diastolic aortic pressures were measured by retracting the catheter into the proximal aorta.

cholesterol fed rats = assay: Subacute studies in cholesterol fed rats, PO once a day for seven days: cholesterol reduction, heart weight; format: in vivo, rat; details: 0.6-50 mg/kg/day PO once a day for seven days
Procedure: Methods: […] Compound 13-1-cis and Compound 18 were administered PO once a day for seven days. Serum TSH is measured using an enzyme immunoassay (EIA) kit designed for rat TSH (Amersham Pharmacia Biotech, Arlington Heights, Ill.). Expression levels of liver genes (e.g., the LDL-receptor, apoB, cpt-1, spot14 and apoA1) and heart genes ([…]^2, Kv1.5, MHCα, MHCβ, Alpha1c) are quantified by Northern blot analysis or by RT-PCR. […] Oligonucleotides specific for the complementary gene sequences are used to make ^32P-labeled probes (Multiprime DNA labeling systems, Amersham Pharmacia Biotech). Following hybridization of the probes to the nylon membranes, radioactivity is assessed on a blue film (Eastman Kodak Co,), and the resulting image quantified using the appropriate software. RT-PCR is performed using an iCycler instrument (Biorad) using appropriate primers by means of standard methodology [[…] et al. (2000) Life Sciences 66: 1683-94]. […] The activities of PEPCK and glucose 6-phosphatase in liver are measured by means of direct enzymatic assays of homogenized liver tissue as described by Andrikopoulos S et al. (1993) Diabetes 42: 1731-1736. Alternatively, expression levels of the corresponding genes are determined by Northern blot analysis or RT-PCR as described above.

ZDF rats [5] = details: rat, in vivo, 28 days
Procedure: Compound 18 was administered at doses up to 5 mg/kg/d. Compound cis-13-1 was administered at doses up to 50 mg/kg/d. We reasoned that the ZDF rat, as a metabolically challenged animal model, would be more sensitive to the potential adverse cardiac effects of thyromimetics than a normal, cholesterol-fed rat. At sacrifice, heart rate, and the first derivative of left ventricular pressure (LV dP/dt) were measured with a Millar catheter inserted into the left ventricle.

[6] = Compound 18 1 mg/kg, vs control
[7] = Compound 18 1 mg/kg, vs vehicle

| SMILES | serum cholesterol (cholesterol-fed rat; 1-100 mg/kd/day, IP once-a-day for seven days) | therapeutic window (separation between cholesterol lowering and cardiac toxicity) (cholesterol-fed rat; cholesterol-fed rats) | Liver Levels [1] | microvesicular steatosis (H&E liver histology) (ZDF rats [2]) | efficacy in lowering cholesterol ([3]; another experiment, dose and route not given) | TSH (ZDF rats [4]) | AUC (0-2 h) (isolated rat hepatocytes) | Heart weight (Sprague Dawley (SD) rat; [6]) | heart weight normalized to body weight (Sprague Dawley (SD) rat; [6]) | HR (Sprague Dawley (SD) rat; [7]) | LV dP/dt (Sprague Dawley (SD) rat; [7]) | systolic aortic pressure (Sprague Dawley (SD) rat; [7]) | diastolic aortic pressure (Sprague Dawley (SD) rat; vs vehicle) | serum cholesterol (cholesterol fed rats) | cholesterol lowering ([3]; hypercholesterolemic rats, 0.5 mg/kg/d orally) | TI Improvement, ED15 HR (ZDF rats [5]) |
| --- | --- | --- | --- | --- | --- | --- | --- | --- | --- | --- | --- | --- | --- | --- | --- | --- |
| Cc1cc(OCP(=O)(O)O)cc(C)c1Cc1ccc(O)c(C(C)C)c1 [Compound 7, [3,5-dimethyl-4-(4′-hydroxy-3′-iso-propylbenzyl)phenoxy]methylphosphonic Acid] | significantly decreased serum cholesterol | 10- to 100 fold | Not Detected | dose dependent reduction in the microvesicular steatosis | efficacous | no statistically significant difference from vehicle | 1371 nmol·h/g | – | – | – | – | – | – | – | – | – |
| Cc1cc(OC[P@@]2(=O)OCC[C@@H](c3cccc(Cl)c3)O2)cc(C)c1Cc1ccc(O)c(C(C)C)c1 [Compound 13-1-cis, Cis (S)-2-[(3,5-Dimethyl-4-(4′-hydroxy-3′-iso-propylbenzyl)phenoxy)methyl]-4-(3-Chlorophenyl)-2-oxo-2λ^5-[1,3,2]-dioxaphosphinane] | – | – | – | – | – | – | – | no significant changes | no significant changes | not significantly different | not significantly different | not significantly different | not significantly different | significantly decreased serum cholesterol | significant lowering of cholesterol | >39 |
